Data: ChEMBL document CHEMBL1201862, “PubChem BioAssay data set” (2004)
Structures can show the parent of a compound that is named as a salt. The source made the active and inactive calls.

Key:
Protein Wnt-3a = Protein Wnt-3a (Mus musculus, UniProt P27467); assay: Wnt3a-driven reporter signaling inhibition, dose response, selectivity assay for Gli-SUFU antagonist project, Wnt-LIGHT cells, luminescence (AID 651570); assay type: functional; settings: read-out: IC50_Mean;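 further: Wnt-LIGHT reporter cells stimulated with conditioned medium from Wnt3a-producing cells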
Sequence of Protein Wnt-3a (P27467 whole entry): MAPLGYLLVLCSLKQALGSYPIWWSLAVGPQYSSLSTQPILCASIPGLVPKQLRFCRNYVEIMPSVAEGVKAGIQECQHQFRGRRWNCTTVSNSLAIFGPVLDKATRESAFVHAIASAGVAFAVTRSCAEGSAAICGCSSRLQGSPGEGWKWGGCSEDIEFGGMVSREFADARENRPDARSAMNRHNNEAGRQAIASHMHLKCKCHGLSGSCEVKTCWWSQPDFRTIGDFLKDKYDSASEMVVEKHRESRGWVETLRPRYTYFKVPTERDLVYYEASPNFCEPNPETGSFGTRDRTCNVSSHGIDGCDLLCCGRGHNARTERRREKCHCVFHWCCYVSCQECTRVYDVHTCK

[1] = AlphaScreen signal interference compounds, dose response, artefact control for ARNT-TACC3 interaction inhibitor project, biochemical, luminescence, cherry-pick (AID 651705); assay type: functional;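 further: AlphaScreen bead proximity signal that flags compounds interfering with the detection technology; potency reflects signal decrease which marks the compound as an assay artifact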
HeLa = assay: HeLa cell cytotoxicity, dose response, cytotoxicity control for MITF activator project, CellTiter-Glo luminescence, cherry-pick samples (AID 540259); assay type: functional, cell-based; settings: Homo sapiens
[2] = Luminescence Cell-Based Dose Retest to Confirm Inhibitors of Cancer Stem Cells. [Related pubchem assays (depositor defined):AID2717, AID2721]; assay type: functional; settings: Homo sapiens
[3] = target: Photoreceptor-specific nuclear receptor (Homo sapiens, UniProt Q9Y5X4); assay type: functional, cell-based;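 further: CHO-S cells with Gal4-NCOR and VP16-NR2E3 two-hybrid luciferase reporter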
Sequence of Photoreceptor-specific nuclear receptor (Q9Y5X4 whole entry, the tested form may be a part): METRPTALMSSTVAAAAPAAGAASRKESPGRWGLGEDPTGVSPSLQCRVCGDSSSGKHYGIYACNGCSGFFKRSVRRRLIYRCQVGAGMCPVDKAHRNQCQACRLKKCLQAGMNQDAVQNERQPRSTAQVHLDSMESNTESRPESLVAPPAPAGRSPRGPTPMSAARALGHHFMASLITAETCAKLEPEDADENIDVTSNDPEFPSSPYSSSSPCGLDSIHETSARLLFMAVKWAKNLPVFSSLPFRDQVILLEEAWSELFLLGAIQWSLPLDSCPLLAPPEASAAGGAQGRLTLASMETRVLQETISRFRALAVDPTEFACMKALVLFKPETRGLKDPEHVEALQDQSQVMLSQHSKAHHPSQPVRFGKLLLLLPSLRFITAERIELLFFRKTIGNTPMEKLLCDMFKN

[4] = target: T1, Latent membrane protein 1 (Human herpesvirus 4 (strain B95-8), UniProt P03230); assay: TES1-eGFP NF-kB reporter inhibition versus Tet-On dsRED, dose response, selectivity assay for LMP1 NF-kB inhibitor project, imaging, HEK293T, dual-color eGFP/dsRED, cherry-picks (AID 588398); assay type: functional, cell-based
T1 sequence (P03230 whole entry): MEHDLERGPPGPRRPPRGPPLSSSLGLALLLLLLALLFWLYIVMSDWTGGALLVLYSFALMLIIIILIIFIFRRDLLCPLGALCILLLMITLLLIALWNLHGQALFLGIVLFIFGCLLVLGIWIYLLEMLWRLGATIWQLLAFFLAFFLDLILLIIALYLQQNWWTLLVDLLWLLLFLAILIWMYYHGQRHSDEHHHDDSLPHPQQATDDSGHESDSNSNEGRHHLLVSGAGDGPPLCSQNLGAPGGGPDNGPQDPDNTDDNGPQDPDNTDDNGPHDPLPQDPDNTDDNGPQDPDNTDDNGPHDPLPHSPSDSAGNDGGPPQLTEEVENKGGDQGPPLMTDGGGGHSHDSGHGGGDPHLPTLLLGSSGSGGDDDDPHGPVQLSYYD

HEK293 = assay: inhibitors of LMP1-driven NF-kB reporter, dose response, cell-based, HEK293, luciferase, cherry-pick (AID 588343); assay type: functional; settings: Homo sapiens
Paired box protein Pax-8 = Paired box protein Pax-8 (Homo sapiens, UniProt Q06710); assay: inhibitors of PAX8-driven TPO luciferase reporter, dose response, RMG-I cells, cherry-pick (AID 687027); assay type: functional, cell-based;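 further: luciferase reporter driven by Pax8 target thyroperoxidase promoter measured by SteadyGlo luminescence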
Sequence of Paired box protein Pax-8 (Q06710 whole entry): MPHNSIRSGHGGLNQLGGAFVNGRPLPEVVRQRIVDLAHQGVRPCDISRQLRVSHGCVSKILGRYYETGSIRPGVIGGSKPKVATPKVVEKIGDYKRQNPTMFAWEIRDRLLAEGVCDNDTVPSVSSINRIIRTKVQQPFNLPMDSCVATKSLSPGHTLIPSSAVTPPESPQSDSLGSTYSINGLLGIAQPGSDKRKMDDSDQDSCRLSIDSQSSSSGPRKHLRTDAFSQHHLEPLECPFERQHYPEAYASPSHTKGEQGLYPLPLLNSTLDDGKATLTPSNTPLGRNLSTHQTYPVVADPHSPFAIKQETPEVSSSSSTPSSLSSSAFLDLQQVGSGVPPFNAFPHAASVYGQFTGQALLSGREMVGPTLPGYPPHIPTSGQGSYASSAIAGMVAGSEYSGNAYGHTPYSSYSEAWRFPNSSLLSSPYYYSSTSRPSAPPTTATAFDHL

Beta-galactosidase = Beta-galactosidase (Escherichia coli, UniProt Q8VNN2); assay: PubChem AID 485352; assay type: functional
Sequence of Beta-galactosidase (Q8VNN2 whole entry): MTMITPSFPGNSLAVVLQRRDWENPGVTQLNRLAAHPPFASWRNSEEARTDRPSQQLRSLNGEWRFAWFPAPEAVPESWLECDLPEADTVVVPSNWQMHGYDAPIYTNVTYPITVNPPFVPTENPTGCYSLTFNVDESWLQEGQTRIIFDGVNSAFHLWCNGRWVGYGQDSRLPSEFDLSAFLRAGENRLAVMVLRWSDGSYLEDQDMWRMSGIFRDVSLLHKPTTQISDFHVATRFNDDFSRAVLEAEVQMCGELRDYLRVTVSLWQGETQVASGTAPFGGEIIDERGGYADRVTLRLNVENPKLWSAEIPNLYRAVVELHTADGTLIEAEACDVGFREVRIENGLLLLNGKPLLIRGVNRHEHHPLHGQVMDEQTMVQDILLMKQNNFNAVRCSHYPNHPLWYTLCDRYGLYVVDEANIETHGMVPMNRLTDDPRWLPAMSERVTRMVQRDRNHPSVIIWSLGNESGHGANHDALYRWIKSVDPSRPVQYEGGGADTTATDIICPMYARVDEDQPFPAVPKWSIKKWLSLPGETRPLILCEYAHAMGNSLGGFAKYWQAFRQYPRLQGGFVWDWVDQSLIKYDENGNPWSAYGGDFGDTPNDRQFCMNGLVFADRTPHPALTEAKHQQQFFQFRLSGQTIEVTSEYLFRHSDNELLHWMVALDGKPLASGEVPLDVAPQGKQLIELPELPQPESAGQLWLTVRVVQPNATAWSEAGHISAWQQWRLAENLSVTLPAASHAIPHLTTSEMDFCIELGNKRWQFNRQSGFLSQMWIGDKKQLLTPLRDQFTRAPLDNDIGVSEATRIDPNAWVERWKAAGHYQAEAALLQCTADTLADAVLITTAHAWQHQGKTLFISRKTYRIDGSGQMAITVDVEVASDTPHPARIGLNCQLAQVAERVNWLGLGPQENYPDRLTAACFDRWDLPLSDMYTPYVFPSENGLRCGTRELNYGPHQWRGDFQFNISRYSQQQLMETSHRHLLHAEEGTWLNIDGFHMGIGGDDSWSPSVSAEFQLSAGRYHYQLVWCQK

[5] = target: T2, Type-1 angiotensin II receptor (Homo sapiens, UniProt P30556); assay: AT1 receptor antagonists, dose response, selectivity assay for APJ receptor antagonist project, cell-based, uHTS hits (AID 463214); assay type: functional;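 further: antagonist potency against angiotensin II stimulated AT1 response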
T2 sequence (P30556 whole entry): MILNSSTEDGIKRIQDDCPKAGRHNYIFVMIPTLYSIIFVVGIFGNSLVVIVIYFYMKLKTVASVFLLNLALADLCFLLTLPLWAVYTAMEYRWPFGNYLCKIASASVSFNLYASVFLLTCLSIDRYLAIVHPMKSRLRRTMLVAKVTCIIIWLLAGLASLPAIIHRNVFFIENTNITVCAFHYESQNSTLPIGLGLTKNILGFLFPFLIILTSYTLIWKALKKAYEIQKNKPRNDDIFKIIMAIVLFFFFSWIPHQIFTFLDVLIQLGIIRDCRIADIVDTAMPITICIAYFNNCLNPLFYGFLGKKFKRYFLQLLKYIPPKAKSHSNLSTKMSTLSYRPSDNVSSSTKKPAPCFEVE

[6] = inhibitors of firefly luciferase expression or activity, dose response, H4 neuroglioma cells, luminescence (AID 1990); assay type: functional, cell-based
[7] = inhibitors of SNCA 5'UTR-driven reporter translation, confirmation, H4 neuroglioma cells, luminescence (AID 1988); assay type: functional, cell-based
[8] = target: Luciferin 4-monooxygenase (Photinus pyralis, UniProt P08659); assay: firefly luciferase enzyme inhibitors, dose response, biochemical, luminescence (AID 1891)
Sequence of Luciferin 4-monooxygenase (P08659 whole entry): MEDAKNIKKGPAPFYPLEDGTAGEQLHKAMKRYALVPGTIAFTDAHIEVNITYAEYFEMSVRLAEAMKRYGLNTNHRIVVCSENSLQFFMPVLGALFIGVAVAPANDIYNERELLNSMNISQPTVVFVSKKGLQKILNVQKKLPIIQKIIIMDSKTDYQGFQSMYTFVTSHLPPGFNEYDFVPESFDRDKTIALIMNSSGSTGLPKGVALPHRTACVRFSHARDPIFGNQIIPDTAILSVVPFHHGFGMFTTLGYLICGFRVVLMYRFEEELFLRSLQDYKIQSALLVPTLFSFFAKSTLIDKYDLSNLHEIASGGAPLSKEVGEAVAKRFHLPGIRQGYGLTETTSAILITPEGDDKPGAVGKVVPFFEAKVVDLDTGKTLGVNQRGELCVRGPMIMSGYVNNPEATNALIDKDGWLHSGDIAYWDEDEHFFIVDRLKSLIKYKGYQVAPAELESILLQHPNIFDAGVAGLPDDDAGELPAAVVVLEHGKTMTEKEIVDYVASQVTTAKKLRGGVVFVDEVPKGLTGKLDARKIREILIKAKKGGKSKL

[9] = Luminescence Cell-Based Dose Confirmation HTS to Identify Inhibitors of Platelet Dense Granule Release. [Related pubchem assays: 1663 (Primary HTS), 1678 (Summary of Project)]; assay type: functional

## O=C(C[C@@H]1C/C=C\C[C@H](NC(=O)OCC2c3ccccc3-c3ccccc32)C(=O)OC[C@H]2CCCN2C1=O)N[C@H](CO)Cc1ccccc1
Protein Wnt-3a
  IC50: 8.46 µM (active)

## COc1cccc(C2c3[nH]c4ccccc4c3CCN2Cc2ncc[nH]2)c1 (centres undefined)
[1]
  AC50: 123 µM (active)

## Fc1ccc2nc(N3CCCC3)sc2c1
HeLa
  AC50: 42.8 µM (active)

## CCCCC[C@@H]1C=C(C(=O)O)[C@H](c2ccc(Cl)c(Cl)c2)N1S(=O)(=O)c1ccc(C)cc1
[2]
  AC50: 4.58 µM (active)
[3]
  IC50: 4.88 µM (active)

## C[C@@H]1CN([C@H]2CC[C@](C#N)(c3ccc(F)cc3)CC2)CC[C@]1(C(=O)O)c1ccccc1 [LEVOCABASTINE HYDROCHLORIDE]
[4]
  AC50: 197 µM (active)

## CCN(CC)c1ccc(C(NC(=O)C(C)C)c2ccc3cccnc3c2O)cc1 (centres undefined)
HEK293
  AC50: 7.26 µM (active)
[4]
  AC50: 3.72 µM (active)
Paired box protein Pax-8
  AC50: 1.09 µM (active)

## Cn1cc(CC(=O)NCCCN2CCCC2)c2ccccc21
[4]
  AC50: 43.5 µM (active)

## COc1ccc(-c2cc(-c3ccccc3)nc(NN)n2)cc1OC
Beta-galactosidase
  EC50: > 40 µM (inactive)
[5]
  IC50: 11.2 µM (active)

## Brc1ccc(N=Nc2ccc3ccccc3n2)cc1
[6]
  EC50: 0.107 µM (active)
Beta-galactosidase
  EC50: > 40 µM (inactive)
[7]
  EC50: 0.125 µM (active)
[8]
  EC50: 0.299 µM (active)
[9]
  EC50: 0.969 µM (active)
[5]
  IC50: > 40 µM (not active)

## O=C(Nc1ccccc1Cl)c1ccc2nccnc2c1
HeLa
  AC50: 67.6 µM (active)
